Assays:
Format in all cases: in vivo
[1] = tested on: sedge, umbrella (small-flower umbrella sedge, Cyperus difformis); test: Test B flooded paddy test; settings: 250 g ai/ha, Flood; visual rating on scale of 0 to 100 where 0 is no effect and 100 is complete control; 13 to 15 d after treatment
How it was run: (§1)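 Plants at the 2-leaf stage were flooded to 3 cm above soil, and test compounds were applied directly into the paddy water, which was held at that depth throughout. After 13 to 15 d in a greenhouse, injury was rated visually against untreated controls on a 0–100 scale (0 no effect, 100 complete control).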

[2] = tested on: ducksalad (Heteranthera limosa); test: Test B flooded paddy test; settings: 250 g ai/ha, Flood; visual rating on scale of 0 to 100 where 0 is no effect and 100 is complete control; 13 to 15 d after treatment
How it was run: as §1

[3] = tested on: barnyardgrass (Echinochloa crus-galli); test: Test B flooded paddy test; settings: 250 g ai/ha, Flood; visual rating on scale of 0 to 100 where 0 is no effect and 100 is complete control; 13 to 15 d after treatment
How it was run: as §1

rice (Oryza sativa) = test: Test B flooded paddy test; settings: 250 g ai/ha, Flood; visual rating on scale of 0 to 100 where 0 is no effect and 100 is complete control; 13 to 15 d after treatment
How it was run: as §1

[4] = tested on: foxtail, giant (giant foxtail, Setaria faberii); test: Test A greenhouse herbicide test, pre- and postemergence; settings: for Foxtail, Giant plant response rating: 0 is no effect, 100 is complete control
How it was run: (§2)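 Seeds sown in loam–sand blend got a preemergence directed soil spray of compound in non-phytotoxic solvent with surfactant. Postemergence treatment was given at 2–10 cm, one- to two-leaf stage. After ~10 d in greenhouse, injury was rated visually vs untreated controls, 0 (no effect) to 100 (complete control).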

[5] = tested on: wheat (Triticum aestivum); test: as above; settings: Postemergence; for Wheat plant response rating: 1000 g ai/ha, 0 is no effect, 100 is complete control
How it was run: as §2

corn (Zea mays) = test: as above; settings: Postemergence; for Corn plant response rating: 1000 g ai/ha, 0 is no effect, 100 is complete control
How it was run: as §2

[6] = tested on: pigweed (Amaranthus retroflexus); test: as above; settings: for Pigweed plant response rating: 0 is no effect, 100 is complete control
How it was run: as §2

[7] = tested on: barnyardgrass (Echinochloa crus-galli); test: as above; settings: for Barnyardgrass plant response rating: 0 is no effect, 100 is complete control
How it was run: as §2

[8] = tested on: ryegrass, Italian (Italian ryegrass, Lolium multiflorum); test: as above; settings: for Ryegrass, Italian plant response rating: 0 is no effect, 100 is complete control
How it was run: as §2

kochia (Kochia scoparia) = test: as above; settings: for Kochia plant response rating: 0 is no effect, 100 is complete control
How it was run: as §2

[9] = tested on: ragweed (common ragweed, Ambrosia elatior); test: as above; settings: for Ragweed plant response rating: 0 is no effect, 100 is complete control
How it was run: as §2

[10] = tested on: galium (catchweed bedstraw, Galium aparine); test: Test A greenhouse herbicide test, postemergence; settings: for Galium plant response rating: 1000 g ai/ha, 0 is no effect, 100 is complete control
How it was run: (§3)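 Greenhouse postemergence test: formulated chemicals sprayed on one- to two-leaf plants (2 to 10 cm), grown in loam soil blended with sand. Injury assessed visually about 10 d later against untreated controls, scored 0 (no effect) to 100 (complete control).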

[11] = tested on: blackgrass (Alopecurus myosuroides); test: Test A greenhouse herbicide test, postemergence; settings: for Blackgrass plant response rating: 1000 g ai/ha, 0 is no effect, 100 is complete control
How it was run: as §3

[12] = Postemergence, 125 g ai/ha, 0 to 100 scale, 0 no effect, 100 complete control
[13] = Postemergence, 500 g ai/ha, visual rating after approx. 10 d, 0 to 100 scale (0 no effect, 100 complete control)
[14] = Preemergence, 125 g ai/ha, visual injury rating, 0 to 100 scale (0 no effect, 100 complete control), approx. 10 d
[15] = Preemergence, 500 g ai/ha, 0 to 100 scale where 0 is no effect and 100 is complete control
[16] = 125 g ai/ha, 0 to 100 scale, 0 no effect, 100 complete control
[17] = 500 g ai/ha, visual rating after approx. 10 d, 0 to 100 scale (0 no effect, 100 complete control)
[18] = Postemergence, 1000 g ai/ha, 0 to 100 scale
[19] = Preemergence, 1000 g ai/ha, 0 to 100 scale, 0 no effect, 100 complete control

Compound: COC(=O)Cn1nc(C)c(O)c(-c2cccc3ccccc23)c1=O [Compound 172]
- Plant response rating, Sedge, Umbrella [1]: 0
- Plant response rating, Ducksalad [2]: 0
- Plant response rating, Barnyardgrass [3]: 0
- Plant response rating, Rice (rice (Oryza sativa)): 0
- Plant response rating, Foxtail, Giant [4, 12]: 40
- Plant response rating, Foxtail, Giant [4, 13]: 80
- Plant response rating, Foxtail, Giant [4, 14]: 60
- Plant response rating, Foxtail, Giant [4, 15]: 90
- Plant response rating, Wheat [5, 16]: 20
- Plant response rating, Wheat [5, 17]: 20
- Plant response rating, Corn (corn (Zea mays); [16]): 0
- Plant response rating, Corn (corn (Zea mays); [17]): 0
- Plant response rating, Pigweed [6, 12]: 0
- Plant response rating, Pigweed [6, 13]: 30
- Plant response rating, Pigweed [6, 14]: 0
- Plant response rating, Pigweed [6, 15]: 0
- Plant response rating, Barnyardgrass [7, 12]: 40
- Plant response rating, Barnyardgrass [7, 13]: 70
- Plant response rating, Barnyardgrass [7, 14]: 20
- Plant response rating, Barnyardgrass [7, 15]: 50
- Plant response rating, Ryegrass, Italian [8, 12]: 20
- Plant response rating, Ryegrass, Italian [8, 13]: 60
- Plant response rating, Ryegrass, Italian [8, 14]: 0
- Plant response rating, Ryegrass, Italian [8, 15]: 20
- Plant response rating, Kochia (kochia (Kochia scoparia); [12]): 0
- Plant response rating, Kochia (kochia (Kochia scoparia); [13]): 20
- Plant response rating, Kochia (kochia (Kochia scoparia); [14]): 0
- Plant response rating, Kochia (kochia (Kochia scoparia); [15]): 0
- Plant response rating, Ragweed [9, 12]: 0
- Plant response rating, Ragweed [9, 13]: 0
- Plant response rating, Ragweed [9, 14]: 0
- Plant response rating, Ragweed [9, 15]: 0
- Plant response rating, Galium [10, 16]: 20
- Plant response rating, Galium [10, 17]: 40
- Plant response rating, Blackgrass [11, 16]: 20
- Plant response rating, Blackgrass [11, 17]: 30

Compound: Cc1n[nH]c(=O)c(-c2cccc3ccccc23)c1OC(F)F [Compound 175]
- Plant response rating, Sedge, Umbrella [1]: 0
- Plant response rating, Ducksalad [2]: 0
- Plant response rating, Barnyardgrass [3]: 0
- Plant response rating, Rice (rice (Oryza sativa)): 0
- Plant response rating, Foxtail, Giant [4, 12]: 0
- Plant response rating, Foxtail, Giant [4, 13]: 0
- Plant response rating, Foxtail, Giant [4, 14]: 0
- Plant response rating, Foxtail, Giant [4, 15]: 0
- Plant response rating, Wheat [5, 16]: 0
- Plant response rating, Wheat [5, 17]: 20
- Plant response rating, Corn (corn (Zea mays); [16]): 0
- Plant response rating, Corn (corn (Zea mays); [17]): 20
- Plant response rating, Pigweed [6, 12]: 0
- Plant response rating, Pigweed [6, 13]: 0
- Plant response rating, Pigweed [6, 14]: 0
- Plant response rating, Pigweed [6, 15]: 60
- Plant response rating, Barnyardgrass [7, 12]: 0
- Plant response rating, Barnyardgrass [7, 13]: 0
- Plant response rating, Barnyardgrass [7, 14]: 0
- Plant response rating, Barnyardgrass [7, 15]: 0
- Plant response rating, Ryegrass, Italian [8, 12]: 20
- Plant response rating, Ryegrass, Italian [8, 13]: 30
- Plant response rating, Ryegrass, Italian [8, 14]: 20
- Plant response rating, Ryegrass, Italian [8, 15]: 20
- Plant response rating, Kochia (kochia (Kochia scoparia); [12]): 0
- Plant response rating, Kochia (kochia (Kochia scoparia); [13]): 0
- Plant response rating, Kochia (kochia (Kochia scoparia); [14]): 0
- Plant response rating, Kochia (kochia (Kochia scoparia); [15]): 20
- Plant response rating, Ragweed [9, 12]: 0
- Plant response rating, Ragweed [9, 13]: 0
- Plant response rating, Ragweed [9, 14]: 0
- Plant response rating, Ragweed [9, 15]: 20
- Plant response rating, Galium [10, 16]: 0
- Plant response rating, Galium [10, 17]: 0
- Plant response rating, Blackgrass [11, 16]: 0
- Plant response rating, Blackgrass [11, 17]: 20

Compound: Cc1ccc2ccccc2c1-c1c(O)c([N+](=O)[O-])nn(C)c1=O [Compound 177]
- Plant response rating, Sedge, Umbrella [1]: 0
- Plant response rating, Ducksalad [2]: 0
- Plant response rating, Barnyardgrass [3]: 0
- Plant response rating, Rice (rice (Oryza sativa)): 0
- Plant response rating, Foxtail, Giant [4, 12]: 0
- Plant response rating, Foxtail, Giant [4, 13]: 0
- Plant response rating, Foxtail, Giant [4, 14]: 0
- Plant response rating, Foxtail, Giant [4, 15]: 0
- Plant response rating, Wheat [5, 16]: 0
- Plant response rating, Wheat [5, 17]: 0
- Plant response rating, Corn (corn (Zea mays); [16]): 0
- Plant response rating, Corn (corn (Zea mays); [17]): 0
- Plant response rating, Pigweed [6, 12]: 0
- Plant response rating, Pigweed [6, 13]: 0
- Plant response rating, Pigweed [6, 14]: 0
- Plant response rating, Pigweed [6, 15]: 0
- Plant response rating, Barnyardgrass [7, 12]: 0
- Plant response rating, Barnyardgrass [7, 13]: 0
- Plant response rating, Barnyardgrass [7, 14]: 0
- Plant response rating, Barnyardgrass [7, 15]: 0
- Plant response rating, Ryegrass, Italian [8, 12]: 0
- Plant response rating, Ryegrass, Italian [8, 13]: 0
- Plant response rating, Ryegrass, Italian [8, 14]: 0
- Plant response rating, Ryegrass, Italian [8, 15]: 0
- Plant response rating, Kochia (kochia (Kochia scoparia); [12]): 0
- Plant response rating, Kochia (kochia (Kochia scoparia); [13]): 0
- Plant response rating, Kochia (kochia (Kochia scoparia); [14]): 0
- Plant response rating, Kochia (kochia (Kochia scoparia); [15]): 0
- Plant response rating, Ragweed [9, 12]: 0
- Plant response rating, Ragweed [9, 13]: 0
- Plant response rating, Ragweed [9, 14]: 0
- Plant response rating, Ragweed [9, 15]: 0
- Plant response rating, Galium [10, 16]: 0
- Plant response rating, Galium [10, 17]: 0
- Plant response rating, Blackgrass [11, 16]: 0
- Plant response rating, Blackgrass [11, 17]: 0

Compound: Cc1nn(C)c(=O)c(-c2cccc3ccccc23)c1OCC=Cc1ccccc1 [Compound 180]
- Plant response rating, Sedge, Umbrella [1]: 0
- Plant response rating, Ducksalad [2]: 0
- Plant response rating, Barnyardgrass [3]: 0
- Plant response rating, Rice (rice (Oryza sativa)): 0
- Foxtail, Giant plant response rating [4, 18]: 0
- Plant response rating, Foxtail, Giant [4, 19]: 10
- Wheat plant response rating ([5]; 0 to 100 scale): 0
- Corn plant response rating (corn (Zea mays); 0 to 100 scale): 0
- Pigweed plant response rating [6, 18]: 50
- Plant response rating, Pigweed [6, 19]: 40
- Barnyardgrass plant response rating [7, 18]: 0
- Plant response rating, Barnyardgrass [7, 19]: 0
- Ryegrass, Italian plant response rating [8, 18]: 70
- Plant response rating, Ryegrass, Italian [8, 19]: 50
- Kochia plant response rating (kochia (Kochia scoparia); [18]): 40
- Plant response rating, Kochia (kochia (Kochia scoparia); [19]): 0
- Ragweed plant response rating [9, 18]: 0
- Plant response rating, Ragweed [9, 19]: 40
- Galium plant response rating ([10]; 0 to 100 scale): 80
- Blackgrass plant response rating ([11]; 0 to 100 scale): 30

Compound: Cc1nn(C)c(=O)c(-c2cccc3ccccc23)c1OC(=O)C=Cc1ccccc1 [Compound 183]
- Plant response rating, Sedge, Umbrella [1]: 0
- Plant response rating, Ducksalad [2]: 0
- Plant response rating, Barnyardgrass [3]: 0
- Plant response rating, Rice (rice (Oryza sativa)): 0
- Foxtail, Giant plant response rating [4, 18]: 70
- Plant response rating, Foxtail, Giant [4, 19]: 60
- Wheat plant response rating ([5]; 0 to 100 scale): 0
- Corn plant response rating (corn (Zea mays); 0 to 100 scale): 10
- Pigweed plant response rating [6, 18]: 90
- Plant response rating, Pigweed [6, 19]: 90
- Barnyardgrass plant response rating [7, 18]: 40
- Plant response rating, Barnyardgrass [7, 19]: 40
- Ryegrass, Italian plant response rating [8, 18]: 100
- Plant response rating, Ryegrass, Italian [8, 19]: 90
- Kochia plant response rating (kochia (Kochia scoparia); [18]): 90
- Plant response rating, Kochia (kochia (Kochia scoparia); [19]): 70
- Ragweed plant response rating [9, 18]: 70
- Plant response rating, Ragweed [9, 19]: 80
- Galium plant response rating ([10]; 0 to 100 scale): 90
- Blackgrass plant response rating ([11]; 0 to 100 scale): 80

Compound: Cc1nn(C)c(=O)c(-c2cccc3ccccc23)c1OCC(=O)c1ccccc1 [Compound 184]
- Plant response rating, Sedge, Umbrella [1]: 0
- Plant response rating, Ducksalad [2]: 0
- Plant response rating, Barnyardgrass [3]: 0
- Plant response rating, Rice (rice (Oryza sativa)): 0
- Foxtail, Giant plant response rating [4, 18]: 20
- Plant response rating, Foxtail, Giant [4, 19]: 30
- Wheat plant response rating ([5]; 0 to 100 scale): 0
- Corn plant response rating (corn (Zea mays); 0 to 100 scale): 0
- Pigweed plant response rating [6, 18]: 80
- Plant response rating, Pigweed [6, 19]: 90
- Barnyardgrass plant response rating [7, 18]: 20
- Plant response rating, Barnyardgrass [7, 19]: 10
- Ryegrass, Italian plant response rating [8, 18]: 80
- Plant response rating, Ryegrass, Italian [8, 19]: 90
- Kochia plant response rating (kochia (Kochia scoparia); [18]): 80
- Plant response rating, Kochia (kochia (Kochia scoparia); [19]): 20
- Ragweed plant response rating [9, 18]: 30
- Plant response rating, Ragweed [9, 19]: 70
- Galium plant response rating ([10]; 0 to 100 scale): 90
- Blackgrass plant response rating ([11]; 0 to 100 scale): 30
